Tested on: vulvovaginal candidiasis
Assay: Third pilot study: open-label, Microbio+ capsules vs topical clotrimazole in women with uncomplicated vulvovaginal candidiasis
Assay type: in vivo, human
Description: Study of the Effect of Microbio+ CAPSULES in Woman with Uncomplicated Vulvovaginal Candidiasis.
The primary endpoints are:
reduction in frequency of recurrences
re-equilibrium of the vaginal microflora (through assessment of clinical signs and Lactobacillus grade) in women with uncomplicated vulvovaginal candidiasis.
CLOTRIMAZOLE group: single administration of topical antifungal treatment with no maintenance cycle
Group B: Microbio+ for 15 consecutive days and maintenance cycle of 5 days a month in premenstrual phase for 3 months
Uncomplicated Vulvovaginal candidiasis;
Microscopic diagnosis of vulvovaginal candidiasis through wet mount or vaginal culture;
Not menopausal (defined as 12 or more months since last menstrual cycle at appropriate age);
The total study duration is 12 weeks.
Diagnosis (V0) and start of treatment
Day 15, day 30 and day 90 visits (V1, 2 and 3): At each visit, the patient was asked if they had taken the treatment regularly and if they had experienced any clinical symptoms or adverse events. A clinical examination, microscopic wet mount examination or (if available) cultural examination were performed to establish the effect of the treatment and the lactobacillus grade.
Primary outcomes: • Evaluation of the efficacy of Microbio+ in women with acute VVC: • 1. Clinical cure rate (resolution of symptoms) of VVC at 15, 30 and 90 days; • 2. Microbiological and microscopic cure of VVC (negative vaginal culture or absence of hyphae at wet mount); • 3. Recurrence rate (defined as the presence of symptoms or positive fungal culture or presence of hyphae at wet mount) in 3-month follow-up period.
Secondary outcomes: • Safety and tolerability of Microbio+ in adult women.

[1] = at 15 and 30 days, 20 patients per arm
[2] = within the 3 months of follow-up, 20 patients per arm

Clc1ccccc1C(c1ccccc1)(c1ccccc1)n1ccnc1 [clotrimazole, Clotrimazole]
clinical and microbiological cure in 1 month (1 month, FIG. 6 summary): 80% | clinical and microbiological cure, number of women [1]: 16 women | clinical and microbiological cure, percent of women [1]: 80% | symptomatic recurrences (symptom recurrence rate), percent of women [2]: 40% | symptomatic recurrences, number of women [2]: 8 women
